Test: Inhibitory activity against varicella zoster virus (VZV) protease

IC50 [nM]	SMILES
840	Cc1csc2nc([C@H](C)NC(=O)/C=C/C(=O)c3ccccc3[N+](=O)[O-])oc(=O)c12 [(E)-4-(2-Nitro-phenyl)-4-oxo-but-2-enoic acid [(S)-1-(5-methyl-4-oxo-4H-thieno[2,3-d][1,3]oxazin-2-yl)-ethyl]-amide]
410	Cc1csc2nc([C@H](C)NC(=O)/C=C/C(=O)c3cccc(C#N)c3)oc(=O)c12 [(E)-4-(3-Cyano-phenyl)-4-oxo-but-2-enoic acid [(S)-1-(5-methyl-4-oxo-4H-thieno[2,3-d][1,3]oxazin-2-yl)-ethyl]-amide]
340	COc1cccc(C(=O)/C=C/C(=O)N[C@@H](C)c2nc3scc(C)c3c(=O)o2)c1 [(E)-4-(3-Methoxy-phenyl)-4-oxo-but-2-enoic acid [(S)-1-(5-methyl-4-oxo-4H-thieno[2,3-d][1,3]oxazin-2-yl)-ethyl]-amide]
1600	CCOc1ccc(C(=O)/C=C/C(=O)N[C@@H](C)c2nc3scc(C)c3c(=O)o2)cc1 [(E)-4-(4-Ethoxy-phenyl)-4-oxo-but-2-enoic acid [(S)-1-(5-methyl-4-oxo-4H-thieno[2,3-d][1,3]oxazin-2-yl)-ethyl]-amide]
650	Cc1csc2nc([C@H](C)NC(=O)/C=C/C(=O)c3cccs3)oc(=O)c12 [(E)-4-Oxo-4-thiophen-2-yl-but-2-enoic acid [(S)-1-(5-methyl-4-oxo-4H-thieno[2,3-d][1,3]oxazin-2-yl)-ethyl]-amide]
1360	CC(=O)C=CC(=O)N[C@@H](C)c1nc2scc(C)c2c(=O)o1 [(E)-4-Oxo-pent-2-enoic acid [(S)-1-(5-methyl-4-oxo-4H-thieno[2,3-d][1,3]oxazin-2-yl)-ethyl]-amide]
820	Cc1csc2nc([C@H](C)NC(=O)CCC(=O)c3cccs3)oc(=O)c12 [N-[(S)-1-(5-Methyl-4-oxo-4H-thieno[2,3-d][1,3]oxazin-2-yl)-ethyl]-4-oxo-4-thiophen-2-yl-butyramide]

Reference: BindingDB's records for doi:10.1016/s0960-894x(99)00005-0 (Smithkline Beecham Pharmaceuticals, 1999)
